Assay results published in the NIST ThermoML archive (doi:10.1021/je060271a).
Numbers after ± are expanded uncertainties.

Conditions: 343.15 K, Liquid, Vibrating tube method

CCCCCC(=O)OCC(COC(=O)CCCCC)(COC(=O)CCCCC)COC(=O)CCCCC [pentaerythritol tetrahexanoate]
Conditions | mass density [kg/m3]
26161 kPa | 975.8 ± 1.2
26188 kPa | 975.7 ± 1.2
26213 kPa | 975.8 ± 1.2
26245 kPa | 975.8 ± 1.2
26271 kPa | 975.7 ± 1.2
26298 kPa | 975.9 ± 1.2
26330 kPa | 975.7 ± 1.2
26356 kPa | 975.9 ± 1.2
26387 kPa | 976 ± 1.2
26413 kPa | 975.9 ± 1.2
26439 kPa | 976 ± 1.2
26471 kPa | 975.9 ± 1.2
26498 kPa | 975.9 ± 1.2
26524 kPa | 976 ± 1.2
26552 kPa | 975.9 ± 1.2
26585 kPa | 976 ± 1.2
26612 kPa | 976.1 ± 1.2
26644 kPa | 976 ± 1.2
26671 kPa | 976.1 ± 1.2
26873 kPa | 976.3 ± 1.2
26906 kPa | 976.2 ± 1.2
26934 kPa | 976.2 ± 1.2
26962 kPa | 976.3 ± 1.2
26990 kPa | 976.1 ± 1.2
27023 kPa | 976.3 ± 1.2
27051 kPa | 976.1 ± 1.2
27079 kPa | 976.3 ± 1.2
27113 kPa | 976.4 ± 1.2
27141 kPa | 976.3 ± 1.2
27174 kPa | 976.3 ± 1.2
27202 kPa | 976.4 ± 1.2
27230 kPa | 976.3 ± 1.2
27264 kPa | 976.5 ± 1.2
27293 kPa | 976.4 ± 1.2
27322 kPa | 976.5 ± 1.2
27351 kPa | 976.4 ± 1.2
27385 kPa | 976.5 ± 1.2
27414 kPa | 976.6 ± 1.2
27449 kPa | 976.6 ± 1.2
27478 kPa | 976.5 ± 1.2
27508 kPa | 976.5 ± 1.2
27537 kPa | 976.6 ± 1.2
27572 kPa | 976.6 ± 1.2
28317 kPa | 977.1 ± 1.2
28347 kPa | 977.2 ± 1.2
28372 kPa | 977.1 ± 1.2
28396 kPa | 977.2 ± 1.2
28427 kPa | 977.3 ± 1.2
28453 kPa | 977.2 ± 1.2
28479 kPa | 977.2 ± 1.2
28503 kPa | 977.2 ± 1.2
28528 kPa | 977.2 ± 1.2
28558 kPa | 977.3 ± 1.2
28583 kPa | 977.4 ± 1.2
29079 kPa | 977.5 ± 1.2
29105 kPa | 977.6 ± 1.2
29132 kPa | 977.6 ± 1.2
29164 kPa | 977.6 ± 1.2
29190 kPa | 977.6 ± 1.2
29216 kPa | 977.6 ± 1.2
29248 kPa | 977.7 ± 1.2
29274 kPa | 977.7 ± 1.2
29301 kPa | 977.7 ± 1.2
29333 kPa | 977.8 ± 1.2
29446 kPa | 977.9 ± 1.2
29473 kPa | 977.8 ± 1.2
29506 kPa | 977.8 ± 1.2
29763 kPa | 978.1 ± 1.2
29796 kPa | 978.2 ± 1.2
29852 kPa | 978.1 ± 1.2
29886 kPa | 978.2 ± 1.2
29914 kPa | 978.1 ± 1.2
